Measured values reported in patent US20100273656A1, “COMPOSITION AND METHOD FOR SELECTIVE HERBICIDE” (priority 2002, published 2010).

Tests used:
dandelions [1] = assay: Example 16 metal salts of EDTA, greenhouse dandelion mortality; format: in vivo, Taraxacum officinale; details: for Dead Dandelion (#/20): pH 7
Procedure: This test investigated various metal chelates. All chelate solutions contained 0.4% metal ions with 10% excess chelator, and were adjusted to pH 7. For the combinations, these 4 solutions were mixed together in a 1:1 ratio. The solutions were sprayed onto greenhouse grown dandelions at a rate of 100 ml/m^2. The test was re-sprayed after 7 days.

white clover [2] = assay: Example 23 Cu-, Mn- or ZnHEDTA with Killex, white clover; format: in vivo
Procedure: (§1) Plants were fertilized with an all purpose water-soluble fertilizer mix of 20-20-20 (N-P-K; Plant-Prod®) as needed. All broadleaf weeds were grown individually in a 2¼-inch pot until they were a suitable size for herbicide tests (actual weed size is reported in examples below). Perennial ryegrass was also grown in 2¼-inch pots, however many grass seeds were sown in the pot to simulate a small section of turf. Grass plants were continually trimmed to a height of 4 cm, simulating that of a homeowner's lawn. For field tests, plots ¼ m^2 in size were marked out in areas containing the targeted broadleaf weed species growing in turf grass. Plots were continually mowed to simulate a homeowner's lawn. […] In all of the examples, the amounts of the various herbicide components are identified as a percent on a weight basis.
(§2) Killex® (Scotts Canada, Ltd., Ontario, Canada) is a commonly used selective lawn herbicide and was used as the commercial herbicide for herbicide combinations. The labeled dilution and application rates for Killex® are 6 ml into 1 L of solution (0.6%) applied at 200 ml/m^2.
(§3) All visual plant damage assessments were made using a quantitative rating scale; percent control relative to the untreated check (0=no effect; 100=plant death).
(§4) Materials and Methods: This trial was conducted in the greenhouse. Ten white clover plants and 10 pots of perennial ryegrass were selected for each treatment. Herbicide solutions were prepared using deionized water. The treatments were applied using a hand-trigger sprayer at 200 ml/m^2. All treatments were applied once. Phytotoxicity (%) was assessed 4 and 7 days after treatment (A4 and A7).

perennial ryegrass [3] = assay: Example 23 Cu-, Mn- or ZnHEDTA with Killex, perennial ryegrass; format: in vivo
Procedure: as §1, §2, §3, §4

dandelion [4] = assay: Example 14 field dandelion test of iron chelates and 50:50 mixtures; format: in vivo, Taraxacum officinale; design: Surviving Dandelions (%): concentration or dose not given beside the values
From the text: Solutions were made of FeHEDTA (0.2% Fe), FeEDTA (0.2% Fe), FeEDDS (0.4% Fe), and FeMGDA (0.4% Fe). For the combinations, these 4 solutions were mixed together in a 1:1 ratio. The plots (0.25 m^2) were sprayed 3 times at weekly intervals at a rate of 0.1 L/m^2. The plots contained a mixture of dandelion and hard fescue turfgrass.

white clover [5] = assay: Example 17 iron chelates with Killex, white clover; format: in vivo
Procedure: as §1, §2, §3
(§5) Materials and Methods: This trial was conducted in the greenhouse. Nine pots of white clover and 10 pots of perennial ryegrass were selected for each treatment. Herbicidal solutions were prepared using deionized water. The treatments were applied using a handheld trigger sprayer at 200 ml/m^2. All treatments were applied once. Phytotoxicity (%) was assessed 4, 7, and 14 days after application (A4, A7, and A14).

perennial ryegrass [6] = assay: Example 17 iron chelates with Killex, perennial ryegrass; format: in vivo
Procedure: as §1, §2, §3, §5

dandelion [7] = assay: Example 21 Fe chelates with Killex, dandelion; format: in vivo, Taraxacum officinale; details: A29 = 29 days after treatment
Procedure: as §1, §2, §3
(§6) Materials and Methods: This trial was conducted in the greenhouse. […] Phytotoxicity (%) was assessed 29 days after treatment (A29).

perennial ryegrass [8] = assay: Example 21 Fe chelates with Killex, perennial ryegrass; format: in vivo; details: A29 = 29 days after treatment
Procedure: as §1, §2, §3, §6

dandelions [9] = assay: Example 7 potassium nonanoate with FeHEDTA, greenhouse dandelions; format: in vivo, Taraxacum officinale
Procedure: (§7) The following non-limiting examples serve to further describe the invention. Unless otherwise specified, all of the iron solutions were made using the same molar concentration of iron ion as chelating agent. All of the outside tests were done on areas of mixed grass and dandelions that were at least 2 months old. For the greenhouse tests, dandelions were grown in a commercial greenhouse mix, using supplemental lighting and heating. Each plant was grown in a 2¼ inch pot to a minimum diameter of 20 cm. All of the solutions were sprayed onto the plants at a rate of 100 ml/m^2. The ferrous sulfate formulations that were used in examples 1, 2, 8 and 9 contained 1% iron (180 mM), 18 mM EDTA, 1% citric acid and 0.5% urea. In all of the examples, the amount of iron is identified in brackets as the percent iron on a weight basis.
(§8) All plant damage was assessed using a qualitative rating scale from 0 to 9.
This test compared the damaged caused by combinations of fatty acid and FeHEDTA. FeHEDTA was used at a concentration to 35.8 mM. The treatment with 0.1% Fe contained twice the molar amount of chelating agent as iron. The treatment with 0.2% iron contained the same molar amount of chelating agent as iron Potassium nonanoate (KC9) was used at 0.84%. The plants were re-sprayed 8 days after the first spray.

grass = assay: Example 1 field test of iron chelates, grass damage; format: in vivo; details: field, sprayed once at 100 ml/m^2, 5 days after spraying
Procedure: as §7, §8
(§9) All of the iron chelates were sprayed once at 0.2% Fe^+3 (35.8 mM), at a volume of 100 ml/m^2 onto 0.5 m^2 areas of mixed grass and dandelions. The spraying of the test was followed by 2 days of rain-free weather. Observations were made 5 days after spraying.

dandelions [10] = assay: Example 1 field test of iron chelates, dandelion damage; format: in vivo, Taraxacum officinale; details: sprayed once at 100 ml/m^2, 5 days after spraying
Procedure: as §7, §8, §9

[11] = day 10 (re-sprayed after 7 days)
[12] = day 6, sprayed 3 times at weekly intervals
[13] = A4 = 4 days after application, 0=no effect, 100=plant death
[14] = A14 = 14 days after application

O=C([O-])CN(CCN(CC(=O)[O-])CC(=O)O)CC(=O)[O-].[Al+3] [Al EDTA (0.4% Al)]
Dead Dandelion (#/20) (dandelions [1]; day 7): 0 #/20
Dead Dandelion (#/20) (dandelions [1]; [11]): 0 #/20

O=C([O-])CN(CCN(CC(=O)O)CC(=O)O)CC(=O)[O-].[Cu+2] [Cu EDTA (0.4% Cu)]
Dead Dandelion (#/20) (dandelions [1]; day 7): 0 #/20
Dead Dandelion (#/20) (dandelions [1]; [11]): 4 #/20

O=C([O-])CN(CCO)CCN(CC(=O)[O-])CC(=O)[O-].[Cu+2] [CuHEDTA 0.4% Cu]
Phytotoxicity (%) against white clover (white clover [2]; A4): 32%
Phytotoxicity (%) against white clover (white clover [2]; A7): 62%
Phytotoxicity (%) on perennial ryegrass (perennial ryegrass [3]; A4): 3%
Phytotoxicity (%) on perennial ryegrass (perennial ryegrass [3]; A7): 3%

[Cl][Fe]([Cl])[Cl] [FeCl3 (0.4% Fe), ferric chloride]
Dead Dandelion (#/20) (dandelions [1]; day 7): 0 #/20
Dead Dandelion (#/20) (dandelions [1]; [11]): 0 #/20

CC(C(=O)[O-])N(CC(=O)[O-])CC(=O)[O-].[Fe+3] (stereo not shown) [FeMGDA]
Area Covered by Dandelion (%) (dandelion [4]; day 0): 30%
Dandelion Count (#/0.25 m^2) (dandelion [4]; day 0): 72 #/0.25 m^2
Dandelion Count (#/0.25 m^2) (dandelion [4]; day 6): 71 #/0.25 m^2
Surviving Dandelions (%) (dandelion [4]; day 6): 99%
Area Covered by Dandelion (%) (dandelion [4]; [12]): 17%
Dandelion Necrosis (%) (dandelion [4]; day 11): 85%
Dandelion Count (#/0.25 m^2) (dandelion [4]; day 13): 43 #/0.25 m^2
Surviving Dandelions (%) (dandelion [4]; day 13): 60%
Area Covered by Dandelion (%) (dandelion [4]; day 15): 12%
Dandelion Necrosis (%) (dandelion [4]; day 18): 99%
Area Covered by Dandelion (%) (dandelion [4]; day 21): 2%
Dandelion Count (#/0.25 m^2) (dandelion [4]; day 21): 19 #/0.25 m^2
Surviving Dandelions (%) (dandelion [4]; day 21): 26%
Dandelion Necrosis (%) (dandelion [4]; day 33): 80%
Phytotoxicity (%) against white clover (white clover [5]; [13]): 4%
Phytotoxicity (%) against white clover (white clover [5]; A7 = 7 days after application): 5%
Phytotoxicity (%) against white clover (white clover [5]; [14]): 2%
Phytotoxicity (%) against perennial ryegrass (perennial ryegrass [6]; A4): 0%
Phytotoxicity (%) against perennial ryegrass (perennial ryegrass [6]; A7): 0%
Phytotoxicity (%) against perennial ryegrass (perennial ryegrass [6]; A14): 0%
Phytotoxicity (%) against dandelion (dandelion [7]): 12%
Phytotoxicity (%) on perennial ryegrass (perennial ryegrass [8]): 0%

CCCCCCCCC(=O)[O-].[K+] [KC9, Potassium nonanoate]
Dead Plants (#/10) (dandelions [9]; 8 + 5 days after spraying): 0 #/10
Plant Damage (0 to 9) (dandelions [9]; 8 + 5 days after spraying (re-sprayed after 8 days)): 0.6 0 to 9
Plant Damage (0 to 9) (dandelions [9]; 7 days after spraying): 0.0 0 to 9

O=C([O-])CN(CCO)CCN(CC(=O)[O-])CC(=O)[O-].[Mn+2] [MnHEDTA 0.4% Mn]
Phytotoxicity (%) against white clover (white clover [2]; A4): 9%
Phytotoxicity (%) against white clover (white clover [2]; A7): 12%
Phytotoxicity (%) on perennial ryegrass (perennial ryegrass [3]; A4): 1%
Phytotoxicity (%) on perennial ryegrass (perennial ryegrass [3]; A7): 1%

O=C([O-])CN(CCN(CC(=O)O)CC(=O)O)CC(=O)[O-].[Zn+2] [Zn EDTA (0.4% Zn)]
Dead Dandelion (#/20) (dandelions [1]; day 7): 0 #/20
Dead Dandelion (#/20) (dandelions [1]; [11]): 0 #/20

O=C([O-])CN(CCN(CCO)CC(=O)O)CC(=O)[O-].[Zn+2] [ZnHEDTA 0.4% Zn]
Phytotoxicity (%) against white clover (white clover [2]; A4): 4%
Phytotoxicity (%) against white clover (white clover [2]; A7): 3%
Phytotoxicity (%) on perennial ryegrass (perennial ryegrass [3]; A4): 1%
Phytotoxicity (%) on perennial ryegrass (perennial ryegrass [3]; A7): 0%

FeEDTA
Grass Damage (0 to 9) (grass): 1
Dandelion Damage (0 to 9) (dandelions [10]): 8.3 0 to 9
Area Covered by Dandelion (%) (dandelion [4]; day 0): 30%
Dandelion Count (#/0.25 m^2) (dandelion [4]; day 0): 56 #/0.25 m^2
Dandelion Count (#/0.25 m^2) (dandelion [4]; day 6): 33 #/0.25 m^2
Surviving Dandelions (%) (dandelion [4]; day 6): 59%
Area Covered by Dandelion (%) (dandelion [4]; [12]): 10%
Dandelion Necrosis (%) (dandelion [4]; day 11): 90%
Dandelion Count (#/0.25 m^2) (dandelion [4]; day 13): 20 #/0.25 m^2
Surviving Dandelions (%) (dandelion [4]; day 13): 36%
Area Covered by Dandelion (%) (dandelion [4]; day 15): 7%
Dandelion Necrosis (%) (dandelion [4]; day 18): 98%
Area Covered by Dandelion (%) (dandelion [4]; day 21): 1%
Dandelion Count (#/0.25 m^2) (dandelion [4]; day 21): 19 #/0.25 m^2
Surviving Dandelions (%) (dandelion [4]; day 21): 34%
Dandelion Necrosis (%) (dandelion [4]; day 33): 90%
herbicidal comparison of metal EDTA chelates, in words (dandelions [1]; Example 16, text): better herbicide than Al EDTA, Cu EDTA and ZnEDTA
Dead Dandelion (#/20) (dandelions [1]; day 7): 10 #/20
Dead Dandelion (#/20) (dandelions [1]; [11]): 17 #/20
Phytotoxicity (%) against white clover (white clover [5]; [13]): 15%
Phytotoxicity (%) against white clover (white clover [5]; A7 = 7 days after application): 15%
Phytotoxicity (%) against white clover (white clover [5]; [14]): 6%
Phytotoxicity (%) against perennial ryegrass (perennial ryegrass [6]; A4): 4%
Phytotoxicity (%) against perennial ryegrass (perennial ryegrass [6]; A7): 2%
Phytotoxicity (%) against perennial ryegrass (perennial ryegrass [6]; A14): 0%
